Patent US20130149701A1, “METHODS OF IDENTIFYING THERAPEUTIC AGENTS FOR TREATING PERSISTER AND BACTERIAL INFECTION” (priority 2010, published 2013)
Converted amounts (≈) assume the structure as drawn. “Also recorded” adds a separate entry of the source. Where two headings read alike, the source gives them in different places.

Legend:
[1] = biological target: DHM444 mutant RpsA binding to tmRNA (Mycobacterium tuberculosis, UniProt P9WH43, DEL438-438); set-up: species or system M. tuberculosis
[2] = system: M. tuberculosis strains (wild type and wild type/pOLYG, and wild type/pOLYG+rpsA); assay: microbe, parasite or virus in culture; type: cell-based; conditions: for susceptibility of the RpsA overexpressing Mtb strain to other drugs: compared with parent strain or vector control strain, pH6.8; for MIC: Mycobacterium tuberculosis, read-out: minimum inhibitory concentration (MIC)
[3] = biological target: mutant RpsAΔA438 from the PZA-resistant strain DHM444 (Mycobacterium tuberculosis, UniProt P9WH43, DEL438-438); type: binding, M. tuberculosis
[4] = system: Mtb clinical isolate DHM444 / H37Rv; assay: microbe, parasite or virus in culture; type: cell-based, M. tuberculosis; conditions: Mycobacterium tuberculosis
M. tuberculosis = type: cell-based

SMILES | effect on tmRNA binding to mutant RpsA [1] | susceptibility of the RpsA overexpressing Mtb strain to other drugs [2] | binding to mutant RpsA (ITC) [3] | other results
NNC(=O)c1ccncc1 [INH, isoniazid] | no effect; also recorded: not affected | remained the same |  | 
O=C(O)c1cnccn1 [POA, 2-pyrazinecarboxylic acid] | did not inhibit |  | not and failed to bind | 
NC(=O)c1cnccn1 [PZA, Pyrazinamide] | no effect; also recorded: not affected |  | did not bind; also recorded: failed to bind | MIC [4]: 200 to 300 mg/L (≈ 1620 to 2440 µM); MIC (M. tuberculosis): 10 mg/L (≈ 81.2 µM); PZA susceptibility (M. tuberculosis): more susceptible; effect on PZA susceptibility (M. tuberculosis): did not have significant effect; reduction in MIC (M. tuberculosis): 5 fold; MIC ([2]; pH 5.5, PZA, vector control and parental Mtb strain, pH 5.5): 100 mg/L (≈ 812 µM); MIC ([2]; pH 5.5): 500 mg/L (≈ 4060 µM); increase in the minimum inhibitory concentration (MIC) ([2]; pH 5.5): 5 fold
CCn1cc(C(=O)O)c(=O)c2cc(F)c(N3CCNCC3)cc21 [norfloxacin] |  | remained the same |  | 
CO[C@H]1/C=C/O[C@@]2(C)Oc3c(C)c(O)c4c(O)c(c(/C=N/N5CCN(C)CC5)c(O)c4c3C2=O)NC(=O)/C(C)=C\C=C\[C@H](C)[C@H](O)[C@@H](C)[C@@H](O)[C@@H](C)[C@H](OC(C)=O)[C@@H]1C [rifampin] |  | remained the same |  | 
[H]/N=C(/N)N[C@H]1[C@H](O)[C@@H](O)[C@H](O[C@@H]2O[C@@H](C)[C@](O)(C=O)[C@H]2O[C@@H]2O[C@@H](CO)[C@H](O)[C@@H](O)[C@@H]2NC)[C@@H](N/C(N)=N\[H])[C@@H]1O [streptomycin] |  | remained the same |  | 
